# Experimental data taken from patent publication US20080132536A1, “PYRAZOLO [3,4-B] PYRIDINE COMPOUNDS, AND THEIR USE AS PDE4 INHIBITORS” (Glaxo Group Limited, priority 2003, published 2008).
# Molecular target: T1, PDE4B (human recombinant) (Homo sapiens, UniProt Q07343)
# T1 construct: made in house
# Test: PDE4B inhibition, radioactive SPA and/or IMAP fluorescence polarisation (FP) assay
# Format: biochemical
# Settings: one reading or average of several (ca. 2-6) readings; SPA and/or FP assay; range given for a group of Examples; read-out: PDE4B pIC50 (±about 0.5) (converted)
# From the text: Human recombinant PDE4B, in particular the 2B splice variant thereof (HSPDE4B2B), is disclosed in WO 94/20079 and also M. M. McLaughlin et al., “A low Km, rolipram-sensitive, cAMP-specific phosphodiesterase from human brain: cloning and expression of cDNA, biochemical characterisation of recombinant protein, and tissue distribution of mRNA”, J. Biol. Chem., 1993, 268, 6470-6476. For example, in Example 1 of WO 94/20079, human recombinant PDE4B is described as being expressed in the PDE-deficient yeast Saccharomyces cerevisiae strain GL62, e.g. after induction by addition of 150 uM CuSO4, and 100,000×g supernatant fractions of yeast cell lysates are described for use in the harvesting of PDE4B enzyme.
# The ability of compounds to inhibit catalytic activity at PDE4B or 4D (human recombinant), PDE3 (from bovine aorta), PDE5 (human recombinant) or PDE6 (from bovine retina) can optionally be determined by Scintillation Proximity Assay (SPA) in 96-well format.
# Test compounds (as a solution in DMSO, preferably about 2 microlitre (ul) volume of DMSO solution) are preincubated at ambient temperature (room temperature, e.g. 19-23° C.) in Wallac Isoplates (code 1450-514) with PDE enzyme in 50 mM Tris-HCl buffer pH 7.5, 8.3 mM MgCl2, 1.7 mM EGTA, 0.05% (w/v) bovine serum albumin for 10-30 minutes (usually 30 minutes). The enzyme concentration is adjusted so that no more than 20% hydrolysis of the substrate defined below occurs in control wells without compound, during the incubation. For the PDE3, PDE4B and PDE4D assays, [5′,8-3H]Adenosine 3′,5′-cyclic phosphate (Amersham Pharmacia Biotech, code TRK.559; or Amersham Biosciences UK Ltd, Pollards Wood, Chalfont St Giles, Buckinghamshire HP8 4SP, UK) is added to give 0.05 uCi per well and about 10 nM final concentration. For the PDE5 and PDE6 assays, [8-^3H]Guanosine 3′,5′-cyclic phosphate (Amersham Pharmacia Biotech, code TRK.392) is added to give 0.05 uCi per well and about 36 nM final concentration. Plates containing assay mixture, preferably approx. 100 ul volume of assay mixture, are mixed on an orbital shaker for 5 minutes and incubated at ambient temperature for 1 hour. Phosphodiesterase SPA beads (Amersham Pharmacia Biotech, code RPNQ 0150) are added (about 1 mg per well) to terminate the assay. Plates are sealed and shaken and allowed to stand at ambient temperature for 35 minutes to 1 hour (preferably 35 minutes) to allow the beads to settle. Bound radioactive product is measured using a WALLAC TRILUX 1450 Microbeta scintillation counter. For inhibition curves, 10 concentrations (1.5 nM-30 uM) of each compound are assayed. Curves are analysed using ActivityBase and XLfit (ID Business Solutions Limited, 2 Ocean Court, Surrey Research Park, Guildford, Surrey GU2 7QB, United Kingdom) Results are expressed as pIC50 values.
# The ability of compounds to inhibit catalytic activity at PDE4B (human recombinant) or PDE4D (human recombinant) can optionally be determined by IMAP Fluorescence Polarisation (FP) assay (IMAP Explorer kit, available from Molecular Devices Corporation, Sunnydale, Calif., USA; Molecular Devices code: R8062) in 384-well format.
# The IMAP FP assay is able to measure PDE activity in an homogenous, non-radioactive assay format. The FP assay uses the ability of immobilised trivalent metal cations, coated onto nanoparticles (tiny beads), to bind the phosphate group of Fl-AMP that is produced on the hydrolysis of fluorescein-labelled (Fl) cyclic adenosine mono-phosphate (Fl-cAMP) to the non-cyclic Fl-AMP form. […] Binding of Fl-AMP product to the beads (coated with the immobilised trivalent cations) slows the rotation of the bound Fl-AMP and leads to an increase in the fluorescence polarisation ratio of parallel to perpendicular light. Inhibition of the PDE reduces/inhibits this signal increase. […]
# T1 sequence (Q07343 1-564 isoform Q07343-2): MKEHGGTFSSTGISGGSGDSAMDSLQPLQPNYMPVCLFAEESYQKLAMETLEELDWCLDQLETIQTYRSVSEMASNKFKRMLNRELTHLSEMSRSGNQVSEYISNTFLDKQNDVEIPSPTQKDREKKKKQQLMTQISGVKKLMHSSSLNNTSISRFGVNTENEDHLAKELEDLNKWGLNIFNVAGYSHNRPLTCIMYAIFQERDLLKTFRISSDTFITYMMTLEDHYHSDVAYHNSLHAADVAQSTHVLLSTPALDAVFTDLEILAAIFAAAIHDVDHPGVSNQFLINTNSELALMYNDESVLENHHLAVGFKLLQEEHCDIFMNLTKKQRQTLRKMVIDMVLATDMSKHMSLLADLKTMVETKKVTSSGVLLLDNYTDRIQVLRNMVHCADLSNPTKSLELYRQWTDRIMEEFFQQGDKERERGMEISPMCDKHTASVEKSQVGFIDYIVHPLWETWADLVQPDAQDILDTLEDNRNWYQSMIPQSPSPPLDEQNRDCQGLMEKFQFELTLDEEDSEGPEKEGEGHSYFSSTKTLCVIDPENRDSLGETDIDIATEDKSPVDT
row,Compound,IC50
1,"CCn1ncc2c(NC3CCC(=O)CC3)c(C(=O)N[C@H](C)c3ccc(C)cc3)cnc21 [Example 191, 1-ethyl-N-[(1R)-1-(4-methylphenyl)ethyl]-4-[(4-oxocyclohexyl)amino]-1H-pyrazolo[3,4-b]pyridine-5-carboxamide]",0.1 to 2 nM
2,"CCC(NC(=O)c1cnc2c(cnn2CC)c1NC1CCC(=O)CC1)c1ccc(C)cc1C (stereo not drawn) [Example 210, N-[1-(2,4-dimethylphenyl)propyl]-1-ethyl-4-[(4-oxocyclohexyl)amino]-1H-pyrazolo[3,4-b]pyridine-5-carboxamide]",0.1 to 2 nM
3,"CCC(NC(=O)c1cnc2c(cnn2CC)c1NC1CCC(=O)CC1)c1ccc(Br)cc1 (stereo not drawn) [Example 218, N-[1-(4-bromophenyl)propyl]-1-ethyl-4-[(4-oxocyclohexyl)amino]-1H-pyrazolo[3,4-b]pyridine-5-carboxamide]",0.1 to 2 nM
4,"CCC(NC(=O)c1cnc2c(cnn2CC)c1NC1CCC(=O)CC1)c1ccc(C)cc1 (stereo not drawn) [Example 221, 1-ethyl-N-[1-(4-methylphenyl)propyl]-4-[(4-oxocyclohexyl)amino]-1H-pyrazolo[3,4-b]pyridine-5-carboxamide]",0.1 to 2 nM
5,"CCC(NC(=O)c1cnc2c(cnn2CC)c1NC1CCC(=NO)CC1)c1ccc(C)cc1 (stereo not drawn) [Example 252, 1-ethyl-4-{[4-(hydroxyimino)cyclohexyl]amino}-N-[1-(4-methylphenyl)propyl]-1H-pyrazolo[3,4-b]pyridine-5-carboxamide]",0.1 to 2 nM
6,"CCC(NC(=O)c1cnc2c(cnn2CC)c1NC1CCC(=NO)CC1)c1ccc(C)c(C)c1 (stereo not drawn) [Example 261, N-[1-(3,4-dimethylphenyl)propyl]-1-ethyl-4-{[4-(hydroxyimino)cyclohexyl]amino}-1H-pyrazolo[3,4-b]pyridine-5-carboxamide]",0.1 to 2 nM
7,"CCC(NC(=O)c1cnc2c(cnn2CC)c1NC1CCCC(O)C1)c1ccc(Cl)cc1 [Example 282, N-[1-(4-chlorophenyl)propyl]-1-ethyl-4-{[(1S,3R)-and/or (1R,3S)-3-hydroxycyclohexyl]amino}-1H-pyrazolo[3,4-b]pyridine-5-carboxamide]",0.1 to 2 nM
8,"CC[C@@H](NC(=O)c1cnc2c(cnn2CC)c1N[C@H]1CC[C@@H](C(N)=O)CC1)c1ccc(C)cc1C [Example 352, 4-{[cis-4-(aminocarbonyl)cyclohexyl]amino}-N-[(1R)-1-(2,4-dimethylphenyl)propyl]-1-ethyl-1H-pyrazolo[3,4-b]pyridine-5-carboxamide]",0.501 to 3.16 nM

# More lines, now with the values ahead:
row,IC50,Compound
1,0.501 to 3.16 nM,"CCn1ncc2c(N[C@H]3CC[C@@H](C(N)=O)CC3)c(C(=O)N[C@H](C)c3ccc(C)cc3)cnc21 [Example 353, 4-{[cis-4-(aminocarbonyl)cyclohexyl]amino}-1-ethyl-N-[(1R)-1-(4-methylphenyl)ethyl]-1H-pyrazolo[3,4-b]pyridine-5-carboxamide]"
2,0.501 to 3.16 nM,"CCn1ncc2c(N[C@H]3CC[C@@H](C(N)=O)CC3)c(C(=O)N[C@H](C)c3ccccc3)cnc21 [Example 354, 4-{[cis-4-(aminocarbonyl)cyclohexyl]amino}-1-ethyl-N-[(1R)-1-phenylethyl]-1H-pyrazolo[3,4-b]pyridine-5-carboxamide]"
3,0.501 to 3.16 nM,"CCn1ncc2c(N[C@H]3CC[C@@H](C(N)=O)CC3)c(C(=O)N[C@H](C)c3ccc(Br)cc3)cnc21 [Example 355, 4-{[cis-4-(aminocarbonyl)cyclohexyl]amino}-N-[(1R)-1-(4-bromophenyl)ethyl]-1-ethyl-1H-pyrazolo[3,4-b]pyridine-5-carboxamide]"
4,39.8 to 158 nM,"CC[C@@H](NC(=O)c1cnc2c(cnn2CC)c1N[C@H]1CC[C@H](C(N)=O)CC1)c1ccc(C)cc1C [Example 356, 4-{[trans-4-(aminocarbonyl)cyclohexyl]amino}-N-[(1R)-1-(2,4-dimethylphenyl)propyl]-1-ethyl-1H-pyrazolo[3,4-b]pyridine-5-carboxamide]"
5,39.8 to 158 nM,"CCn1ncc2c(N[C@H]3CC[C@H](C(N)=O)CC3)c(C(=O)N[C@H](C)c3ccc(C)cc3)cnc21 [Example 357, 4-{[trans-4-(aminocarbonyl)cyclohexyl]amino}-1-ethyl-N-[(1R)-1-(4-methylphenyl)ethyl]-1H-pyrazolo[3,4-b]pyridine-5-carboxamide]"
6,39.8 to 158 nM,"CCn1ncc2c(N[C@H]3CC[C@H](C(N)=O)CC3)c(C(=O)N[C@H](C)c3ccccc3)cnc21 [Example 358, 4-{[trans-4-(aminocarbonyl)cyclohexyl]amino}-1-ethyl-N-[(1R)-1-phenylethyl]-1H-pyrazolo[3,4-b]pyridine-5-carboxamide]"
7,39.8 to 158 nM,"CCn1ncc2c(N[C@H]3CC[C@H](C(N)=O)CC3)c(C(=O)N[C@H](C)c3ccc(Br)cc3)cnc21 [Example 359, 4-{[trans-4-(aminocarbonyl)cyclohexyl]amino}-N-[(1R)-1-(4-bromophenyl)ethyl]-1-ethyl-1H-pyrazolo[3,4-b]pyridine-5-carboxamide]"
